From US8362065B2, “Carbazole carboxamide compounds useful as kinase inhibitors” (Bristol-Myers Squibb Company, priority 2008, dated 2013) come the findings set out here.

Structures can show the parent of a compound that is named as a salt.

The test system of assay [1] is Ramos RA1 B cells. Kind of assay: Ramos FLIPR Assay. It is filed as cell-based. As to conditions: goat anti-human IgM 2.5 μg/mL, peak intracellular calcium, read-out: IC50 for Inhibition of Ramos FLIPR assay. Background: Calcium flux is commonly read through the fluorescence of an indicator in the cells.
In assay [2] the target is T1, human recombinant Btk (Homo sapiens, UniProt Q06187).
T1 construct: purchased Invitrogen Corporation
T1 sequence (Q06187 whole entry): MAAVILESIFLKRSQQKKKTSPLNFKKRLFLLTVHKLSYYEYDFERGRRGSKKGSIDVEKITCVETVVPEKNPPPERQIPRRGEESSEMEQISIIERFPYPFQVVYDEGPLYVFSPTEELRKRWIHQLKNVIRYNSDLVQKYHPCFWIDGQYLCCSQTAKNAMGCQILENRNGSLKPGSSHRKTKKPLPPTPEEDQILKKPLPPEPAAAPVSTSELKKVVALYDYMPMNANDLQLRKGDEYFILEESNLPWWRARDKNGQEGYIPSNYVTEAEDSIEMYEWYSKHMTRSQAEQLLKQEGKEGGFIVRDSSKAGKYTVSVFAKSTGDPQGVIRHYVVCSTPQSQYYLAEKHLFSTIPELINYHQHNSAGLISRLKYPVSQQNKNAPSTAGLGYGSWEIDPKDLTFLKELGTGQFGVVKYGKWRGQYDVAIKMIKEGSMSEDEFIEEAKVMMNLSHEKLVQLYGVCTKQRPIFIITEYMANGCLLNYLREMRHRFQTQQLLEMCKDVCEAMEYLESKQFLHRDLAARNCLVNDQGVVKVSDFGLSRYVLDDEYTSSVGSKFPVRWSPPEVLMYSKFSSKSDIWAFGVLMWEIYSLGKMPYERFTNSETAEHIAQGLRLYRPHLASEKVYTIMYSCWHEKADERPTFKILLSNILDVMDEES
Kind of assay: Human Recombinant Btk Enzyme Assay. As to conditions: human recombinant Btk 1 nM, ATP 20 μM, 60 min at room temperature; read-out: IC50 for Inhibition of Btk. It is filed as biochemical.

Regarding `Cc1c(/N=C2\OCc3ccncc32)cccc1-c1ccc(C(N)=O)c2[nH]c3cc(C(C)(C)OCCO)ccc3c12` [Example 76-49], the IC50 (commonly the concentration at which inhibition is half-maximal) in assay [1] is 14 nM.
On the same count and under the same terms, the figure for `Cc1ccc2c(c1)CN(c1cncc(-c3ccc(C(N)=O)c4[nH]c5cc(N6CCOC6=O)ccc5c34)c1C)C2=O` [Example 66-40] is 270 nM; for `Cc1ccc2ncn(-c3cccc(-c4ccc(C(N)=O)c5[nH]c6c(c45)CCC(C(C)(C)O)C6)c3C)c(=O)c2c1` (stereo not drawn) [Example 76-43] it is 260 nM.
Still for that read-out and setting: the figure for `Cc1ccc2c(c1)CN(c1cccc(-c3ccc(C(N)=O)c4[nH]c5cc(N6CCCC6=O)ccc5c34)c1C)C2=O` [Example 66-5] is 260 nM; for `Cc1c(-c2ccc(C(N)=O)c3[nH]c4cc(C(C)(C)O)ccc4c23)cccc1-n1cnc2cccc(F)c2c1=O` [Example 76-26] it is 18 nM.
Same read-out and setting: the result for `CN1CCN(C(=O)c2ccc3c(c2)[nH]c2c(C(N)=O)ccc(-c4c(F)cc(NC(=O)c5ccc(F)cc5)cc4F)c23)CC1` [Example 5-48] reads 1400 nM; that for `Cc1c(-c2ccc(C(N)=O)c3[nH]c4cc(N5CCNC5=O)ccc4c23)cccc1N1Cc2cc(F)ccc2C1=O` [Example 66-14], 260 nM.
With `Cc1c(NC(=O)c2ccc(F)cc2)cccc1-c1ccc(C(N)=O)c2[nH]c3cc(NC(=O)CCCN4CCOCC4)ccc3c12` [Example 57-16], the IC50 in assay [2] worked out at 2.1 nM.
The same measure, in the same setting: the figure for `Cc1c(-c2ccc(C(N)=O)c3[nH]c4cc(NC(C)C)ccc4c23)cccc1-n1ccn2ccnc2c1=O` [Example 80-1, 7-(isopropylamino)-4-(2-methyl-3-(8-oxoimidazo[1,2-a]pyrazin-7(8H)-yl)phenyl)-9H-carbazole-1-carboxamide] is 1.9 nM; for `Cc1c(-c2ccc(C(N)=O)c3[nH]c4c(c23)CCC(C(=O)N(C)C2CCN(C)CC2)C4)cccc1N1Cc2ccc(C(F)(F)F)cc2C1=O` (stereo not drawn) [Example 3-130] it is 2 nM.
Consider `Cc1c(-c2ccc(C(N)=O)c3[nH]c4cc(O)ccc4c23)cccc1N1Cc2ccccc2C1=O` [Example 41-1, 7-hydroxy-4-(2-methyl-3-(1-oxoisoindolin-2-yl)phenyl)-9H-carbazole-1-carboxamide], for which the concentration for half-maximal inhibition (IC50) in assay [2] worked out at 16 nM.
Still for that read-out and setting: the figure for `CC(=O)Nc1ccc(F)c(-c2ccc(C(N)=O)c3[nH]c4cc(C(=O)N5CCN(C)CC5)ccc4c23)c1` [Example 2-35, 4-(5-acetamido-2-fluorophenyl)-7-(4-methylpiperazine-1-carbonyl)-9H-carbazole-1-carboxamide] is 16 nM.
For the molecule `Cc1c(NC(=O)c2nccn2C)cccc1-c1ccc(C(N)=O)c2[nH]c3cc(C(O)CO)ccc3c12` (stereo not drawn) [Example 78-2], in assay [2], the IC50 came out at 1.6 nM.
In the case of `Cc1c(-c2ccc(C(N)=O)c3[nH]c4cc(C(C)(C)O)ccc4c23)cccc1N1CCc2cc(F)ccc2C1=O` [Example 81-20], the concentration for half-maximal inhibition (IC50) in assay [2] came out at 2.2 nM.
Consider `CN1CCN(C(=O)c2ccc3c(c2)[nH]c2c(C(N)=O)ccc(-c4c[nH]c5cc(-c6ccc(F)cc6)ccc45)c23)CC1` [Example 3-83], for which, in assay [2], the IC50 was 940 nM.
For `Cc1c(NC(=O)c2ncc[nH]2)cccc1-c1ccc(C(N)=O)c2[nH]c3cc(C(=O)N4CCN(C)CC4)ccc3c12` [Example 5-9, 4-(3-(1H-imidazole-2-carboxamido)-2-methylphenyl)-7-(4-methylpiperazine-1-carbonyl)-9H-carbazole-1-carboxamide (prepared as the TFA salt)], the IC50 in assay [2] came to 1.9 nM.
The same measure, in the same setting: the figure for `Cc1c(NC(=O)C2(c3ccc(F)cc3)CC2)cccc1-c1ccc(C(N)=O)c2[nH]c3cc(C(=O)N4CCN(C)CC4)ccc3c12` [Example 5-42] is 15 nM; for `CCOc1ccc2ccccc2c1-c1ccc(C(N)=O)c2[nH]c3cc(C(=O)N4CCN(C)CC4)ccc3c12` [Example 3-18] it is 2700 nM.
As for `Cc1c(-c2ccc(C(N)=O)c3[nH]c4cc(NC(=O)OCc5ccccc5)ccc4c23)cccc1N1Cc2cc(C(C)(C)C)ccc2C1=O` [Example 51-4, benzyl 5-(3-(5-tert-butyl-1-oxoisoindolin-2-yl)-2-methylphenyl)-8-carbamoyl-9H-carbazol-2-ylcarbamate], the IC50 in assay [2] was 1600 nM.
In the case of `CN1CCN(C(=O)c2ccc3c(c2)[nH]c2c(C(N)=O)ccc(-c4cccc5cccnc45)c23)CC1` [Example 3-19], in assay [2], the IC50 worked out at 1800 nM.
Turning to `CN1CCN(C(=O)c2ccc3c(c2)[nH]c2c(C(N)=O)ccc(-c4cccc(-c5ccccc5)c4)c23)CC1` [Example 3-48], in assay [2], the IC50 was 390 nM.
On the same count and under the same terms, the result for `Cc1c(-c2ccc(C(N)=O)c3[nH]c4cc(C(C)(C)O)ccc4c23)cccc1-n1ccn2c(C)cnc2c1=O` [Example 81-3] reads 1.9 nM; that for `Cc1c(-c2ccc(C(N)=O)c3[nH]c4c(c23)CCC(C(C)(C)O)C4)cccc1N1Cc2ccc(C(F)(F)F)cc2C1=O` (stereo not drawn) [Example 76-44], 18 nM.
Still for that read-out and setting: the result for `Cc1c(NC(=O)c2ccc(F)cc2)cccc1-c1ccc(C(N)=O)c2[nH]c3cc(NC(=O)c4ccc(C#N)cc4)ccc3c12` [Example 57-20] reads 15 nM; that for `Cc1c(NC(=O)c2nc(C(C)C)cs2)cccc1-c1ccc(C(N)=O)c2[nH]c3cc(C(=O)N4CCN(C)CC4)ccc3c12` [Example 5-16], 18 nM; that for `NC(=O)c1ccc(-c2ccccc2F)c2c1[nH]c1ccc(Oc3ccccc3)cc12` [Example 48-2], 1700 nM.
For `CC(=O)NCc1ccc2c(c1)[nH]c1c(C(N)=O)ccc(-c3cccc(N4Cc5ccc(F)cc5C4=O)c3C)c12` [Example 38-2, 7-(acetamidomethyl)-4-(3-(6-fluoro-1-oxoisoindolin-2-yl)-2-methylphenyl)-9H-carbazole-1-carboxamide], the IC50 in assay [2] came to 2.1 nM.
Same read-out and setting: the figure for `CN1CCN(C(=O)c2ccc3c(c2)[nH]c2c(C(N)=O)ccc(N4CCC[C@@H](NC(=O)Nc5nccs5)C4)c23)CC1` [Example 19-1, (R)-7-(4-methylpiperazine-1-carbonyl)-4-(3-(3-thiazol-2-ylureido)piperidin-1-yl)-9H-carbazole-1-carboxamide] is 17 nM; for `Cc1c(NC(=O)c2ccc(F)cc2)cccc1-c1ccc(C(N)=O)c2[nH]c3cc(NC4CCN(C)CC4)ccc3c12` [Example 61-2] it is 2.2 nM.
In the case of `Cc1c(NC(=O)c2ccccn2)cccc1-c1ccc(C(N)=O)c2[nH]c3c(c12)CCC(NC(=O)OCc1ccccc1)C3` (stereo not drawn) [Example 52-2, benzyl 8-carbamoyl-5-(2-methyl-3-(picolinamido)phenyl)-2,3,4,9-tetrahydro-1H-carbazol-2-ylcarbamate], the IC50 in assay [2] was found to be 520 nM.
Still for that read-out and setting: the result for `Cc1ccc2c(c1)C(=O)N(c1cccc(-c3ccc(C(N)=O)c4[nH]c5cc(C(O)CO)ccc5c34)c1C)C2` (racemic) [Example 70-5, 7-((RS)-1,2-dihydroxyethyl)-4-(2-methyl-3-(6-methyl-1-oxoisoindolin-2-yl)phenyl)-9H-carbazole-1-carboxamide] reads 1.6 nM; that for `Cc1c(NC(=O)c2ccc(F)cn2)cccc1-c1ccc(C(N)=O)c2[nH]c3cc(NC(=O)OCc4ccccc4)ccc3c12` [Example 52-1, benzyl 8-carbamoyl-5-(3-(5-fluoropicolinamido)-2-methylphenyl)-9H-carbazol-2-ylcarbamate], 520 nM.
With `CN1CCN(C(=O)c2ccc3c(c2)[nH]c2c(C(N)=O)ccc(N4CCC[C@@H](N)C4)c23)CC1` [Example 17-1, (R)-4-(3-aminopiperidin-1-yl)-7-(4-methylpiperazine-1-carbonyl)-9H-carbazole-1-carboxamide], the IC50 in assay [2] turned out to be 1100 nM.
